What was measured:
[1] = target: T1, BRG-1 (Homo sapiens, UniProt P51532); assay: ATPase catalytic activity assay (ADP-Glo), BRG-1; assay type: biochemical; settings: 30 nM BRG-1, 400 μM ATP; for IC50: 20 nM salmon sperm DNA, read-out: BRG1 IP50 (μM)*; for Emax: read-out: BRG1 Max % Inhibition
T1 construct: made in house; host or cells: High Five insect cells
Protocol: (§1) The ATPase catalytic activity of BRM or BRG-1 was measured by the in vitro biochemical assay using ADP-Glo™ (Promega, V9102). The ADP-Glo™ kinase assay is performed in two steps once the reaction is complete. The first step is to deplete any unconsumed ATP in the reaction. The second step is to convert the reaction product ADP to ATP, which will be utilized by the luciferase to generate luminesce and be detected by a luminescence reader, such as Envision.
(§2) The assay reaction mixture (10 μL) contains 30 nM of BRM or BRG-1, 20 nM salmon sperm DNA (from Invitrogen, UltraPure™ Salmon Sperm DNA Solution, cat #15632011), and 400 μM of ATP in the ATPase assay buffer, which comprises of 20 mM Tris, pH 8, 20 mM MgCl2, 50 mM NaCl, 0.1% Tween-20, and 1 mM fresh DTT (Pierce™ DTT (Dithiothreitol), cat #20290). The reaction is initiated by the addition of the 2.5 μL ATPase solution to 2.5 μL ATP/DNA solution on low volume white Proxiplate-384 plus plate (PerkinElmer,cat #6008280) and incubates at room temperature for 1 hour. Then following addition of 5 μL of ADP-Glo™ Reagent provided in the kit, the reaction incubates at room temperature for 40 minutes. Then 10 μL of Kinase Detection Reagent provided in the kit is added to convert ADP to ATP, and the reaction incubates at room temperature for 60 minutes. Finally, luminescence measurement is collected with a plate-reading luminometer, such as Envision.
as §1, with “The” for “The ATPase catalytic activity of BRM or BRG-1 was measured by the in vitro biochemical assay using ADP-Glo™ (Promega, V9102). The”
as §2, with “BRG1,” for “BRG-1,”

[2] = target: T2, BRM (Homo sapiens, UniProt P51531); assay: ATPase catalytic activity assay (ADP-Glo), BRM; assay type: biochemical; settings: 30 nM BRM, 400 μM ATP; for IC50: 20 nM salmon sperm DNA, read-out: BRM IP50 (μM)*
T2 construct: made in house; host or cells: High Five insect cells
Protocol: as §1, §2
as §1, with “The” for “The ATPase catalytic activity of BRM or BRG-1 was measured by the in vitro biochemical assay using ADP-Glo™ (Promega, V9102). The”
as §2, with “BRG1,” for “BRG-1,”

T2 sequence (P51531 whole entry): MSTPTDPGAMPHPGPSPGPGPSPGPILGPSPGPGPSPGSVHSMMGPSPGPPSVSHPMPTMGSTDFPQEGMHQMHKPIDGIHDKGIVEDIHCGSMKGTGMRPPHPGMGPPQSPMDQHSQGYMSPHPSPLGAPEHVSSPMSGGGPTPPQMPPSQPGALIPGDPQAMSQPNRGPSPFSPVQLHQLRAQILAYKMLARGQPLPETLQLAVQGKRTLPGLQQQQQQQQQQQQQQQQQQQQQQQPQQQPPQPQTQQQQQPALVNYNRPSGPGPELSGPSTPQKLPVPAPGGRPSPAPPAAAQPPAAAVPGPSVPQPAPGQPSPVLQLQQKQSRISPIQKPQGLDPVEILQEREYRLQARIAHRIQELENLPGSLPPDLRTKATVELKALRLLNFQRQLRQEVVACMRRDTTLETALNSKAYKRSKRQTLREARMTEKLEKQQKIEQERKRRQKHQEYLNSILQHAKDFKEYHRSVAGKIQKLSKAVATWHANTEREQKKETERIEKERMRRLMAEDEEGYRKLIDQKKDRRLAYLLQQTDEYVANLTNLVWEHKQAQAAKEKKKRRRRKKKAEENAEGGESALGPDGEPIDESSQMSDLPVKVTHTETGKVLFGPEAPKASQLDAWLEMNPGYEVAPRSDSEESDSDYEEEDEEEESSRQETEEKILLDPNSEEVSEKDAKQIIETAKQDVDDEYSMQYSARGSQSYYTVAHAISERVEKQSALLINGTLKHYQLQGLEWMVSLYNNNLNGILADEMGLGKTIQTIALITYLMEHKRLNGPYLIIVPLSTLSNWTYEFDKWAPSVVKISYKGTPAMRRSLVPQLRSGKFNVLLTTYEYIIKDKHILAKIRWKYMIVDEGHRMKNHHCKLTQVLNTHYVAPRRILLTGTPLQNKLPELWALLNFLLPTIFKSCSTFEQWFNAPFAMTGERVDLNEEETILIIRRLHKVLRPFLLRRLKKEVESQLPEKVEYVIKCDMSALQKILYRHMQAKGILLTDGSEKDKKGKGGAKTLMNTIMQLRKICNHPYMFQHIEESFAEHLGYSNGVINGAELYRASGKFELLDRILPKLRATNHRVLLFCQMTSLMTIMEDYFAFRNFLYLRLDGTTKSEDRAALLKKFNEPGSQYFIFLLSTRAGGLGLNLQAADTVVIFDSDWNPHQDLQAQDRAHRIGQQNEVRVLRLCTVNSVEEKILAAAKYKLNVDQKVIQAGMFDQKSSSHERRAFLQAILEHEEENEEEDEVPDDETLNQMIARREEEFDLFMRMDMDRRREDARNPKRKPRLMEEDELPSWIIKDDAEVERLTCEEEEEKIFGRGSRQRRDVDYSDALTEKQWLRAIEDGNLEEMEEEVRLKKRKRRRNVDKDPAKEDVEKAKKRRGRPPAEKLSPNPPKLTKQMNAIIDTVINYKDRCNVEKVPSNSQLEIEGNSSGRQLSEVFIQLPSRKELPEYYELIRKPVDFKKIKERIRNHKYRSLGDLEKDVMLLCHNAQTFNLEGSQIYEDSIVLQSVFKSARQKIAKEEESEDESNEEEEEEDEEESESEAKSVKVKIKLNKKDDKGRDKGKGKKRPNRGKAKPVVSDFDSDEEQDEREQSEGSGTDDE
T1 sequence (P51532 whole entry): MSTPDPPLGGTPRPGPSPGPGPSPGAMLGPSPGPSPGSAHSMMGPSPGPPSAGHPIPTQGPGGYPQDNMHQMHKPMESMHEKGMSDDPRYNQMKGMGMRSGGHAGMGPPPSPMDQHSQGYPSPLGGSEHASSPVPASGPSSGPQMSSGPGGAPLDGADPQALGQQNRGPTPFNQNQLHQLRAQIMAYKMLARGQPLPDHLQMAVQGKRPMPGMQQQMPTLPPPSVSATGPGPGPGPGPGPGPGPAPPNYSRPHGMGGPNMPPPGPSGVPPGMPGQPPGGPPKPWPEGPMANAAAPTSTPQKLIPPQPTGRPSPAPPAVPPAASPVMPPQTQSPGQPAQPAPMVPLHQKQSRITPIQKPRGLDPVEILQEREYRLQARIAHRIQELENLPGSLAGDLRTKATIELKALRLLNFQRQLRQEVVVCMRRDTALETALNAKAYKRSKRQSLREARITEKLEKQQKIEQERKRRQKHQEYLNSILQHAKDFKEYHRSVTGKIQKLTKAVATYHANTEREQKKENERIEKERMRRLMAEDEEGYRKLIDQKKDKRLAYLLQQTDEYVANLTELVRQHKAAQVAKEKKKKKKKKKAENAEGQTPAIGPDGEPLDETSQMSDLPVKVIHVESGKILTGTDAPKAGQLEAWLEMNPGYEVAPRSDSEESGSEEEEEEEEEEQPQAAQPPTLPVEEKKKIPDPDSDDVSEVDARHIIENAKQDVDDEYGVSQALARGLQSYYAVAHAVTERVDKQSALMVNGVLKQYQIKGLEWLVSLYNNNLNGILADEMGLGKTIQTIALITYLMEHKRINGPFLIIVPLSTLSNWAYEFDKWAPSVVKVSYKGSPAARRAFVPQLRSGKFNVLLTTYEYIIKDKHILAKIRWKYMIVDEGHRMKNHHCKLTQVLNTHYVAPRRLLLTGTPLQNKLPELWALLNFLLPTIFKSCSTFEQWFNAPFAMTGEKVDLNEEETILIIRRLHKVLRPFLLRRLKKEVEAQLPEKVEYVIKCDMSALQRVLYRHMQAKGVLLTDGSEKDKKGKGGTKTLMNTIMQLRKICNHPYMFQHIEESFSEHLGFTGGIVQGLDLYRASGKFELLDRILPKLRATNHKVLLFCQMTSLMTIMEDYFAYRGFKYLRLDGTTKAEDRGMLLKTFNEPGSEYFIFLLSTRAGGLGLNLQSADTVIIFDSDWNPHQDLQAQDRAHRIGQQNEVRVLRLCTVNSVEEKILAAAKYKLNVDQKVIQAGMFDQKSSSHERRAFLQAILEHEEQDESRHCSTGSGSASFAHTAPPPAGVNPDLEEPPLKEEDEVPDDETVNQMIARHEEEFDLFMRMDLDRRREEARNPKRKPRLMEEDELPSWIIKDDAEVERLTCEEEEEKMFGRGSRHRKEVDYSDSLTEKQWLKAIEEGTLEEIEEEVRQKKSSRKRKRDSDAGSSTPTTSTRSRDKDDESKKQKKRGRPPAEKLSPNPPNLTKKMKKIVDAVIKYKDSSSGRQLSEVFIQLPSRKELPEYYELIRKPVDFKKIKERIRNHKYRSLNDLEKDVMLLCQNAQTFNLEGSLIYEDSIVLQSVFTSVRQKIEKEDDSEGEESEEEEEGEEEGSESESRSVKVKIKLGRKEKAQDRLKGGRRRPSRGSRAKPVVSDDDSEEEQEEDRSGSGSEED

Cc1cc(C(=O)NCC(=O)Nc2nc(-c3cccc(-c4ccn(C)n4)c3)cs2)cn1S(=O)(=O)C(C)C [Compound 6, 1-(isopropylsulfonyl)-5-methyl-N-(2-((4-(3-(1-methyl-1H-pyrazol-3-yl)phenyl)thiazol-2-yl)amino)-2-oxoethyl)-1H-pyrrole-3-carboxamide]
IC50 [1]: 1 to 5 µM | Emax [1]: > 50% | BRM Max % Inhibition [2]: >90% | IC50 [2]: 0.1 to 1 µM

CS(=O)(=O)n1cc(C(=O)NCC(=O)Nc2nc(-c3cccc(-c4ccncc4)c3)cs2)c2c1CCCC2 [Compound 5, 1-(methylsulfonyl)-N-(2-oxo-2-((4-(3-(pyridin-4-yl)phenyl)thiazol-2-yl)amino)ethyl)-4,5,6,7-tetrahydro-1 H-indole-3-carboxamide]
IC50 [1]: > 5 µM | Emax [1]: < 30% | BRM Max % Inhibition [2]: >60% | IC50 [2]: < 0.1 µM

C[C@@H]1CN(c2cccc(-c3csc(NC(=O)CNC(=O)c4cn(S(C)(=O)=O)c5ccccc45)n3)c2)C[C@H](C)O1 [Compound 26, N-(2-((4-(3-((cis)-2,6-dimethylmorpholino)phenyl)thiazol-2-yl)amino)-2-oxoethyl)-1-(methylsulfonyl)-1H-indole-3-carboxamide]
IC50 [1]: 1 to 5 µM | Emax [1]: > 60% | BRM Max % Inhibition [2]: >90% | IC50 [2]: 0.1 to 1 µM

CC(C)S(=O)(=O)n1cc(C(=O)NCC(=O)Nc2nc(-c3cccc(N4C[C@@H](C)O[C@@H](C)C4)n3)cs2)cc1Cl [Compound 37, 5-chloro-N-(2-((4-(6-((cis)-2,6-dimethylmorpholino)pyridin-2-yl)thiazol-2-yl)amino)-2-oxoethyl)-1-(isopropylsulfonyl)-1H-pyrrole-3-carboxamide]
IC50 [1]: 1 to 5 µM | Emax [1]: > 40% | BRM Max % Inhibition [2]: >80% | IC50 [2]: 0.1 to 1 µM

Cc1nccc(-c2cccc(-c3csc(NC(=O)CNC(=O)c4cn(S(=O)(=O)C(C)C)c(C)c4C)n3)c2)n1 [Compound 17]
IC50 [1]: 0.1 to 1 µM | Emax [1]: > 80% | BRM Max % Inhibition [2]: >95% | IC50 [2]: < 0.1 µM

CC(C)S(=O)(=O)n1cc(C(=O)NCC(=O)Nc2nc(-c3cccc(-c4ccncc4)c3)cs2)c(Cl)c1Cl [Compound 30, 4,5-dichloro-1-isopropylsulfonyl-N-[2-oxo-2-[[4-[3-(4-pyridyl)phenyl]thiazol-2-yl]amino]ethyl]pyrrole-3-carboxamide]
IC50 [1]: > 5 µM | Emax [1]: < 30% | BRM Max % Inhibition [2]: >50% | IC50 [2]: < 0.1 µM

Cc1cc(-c2cccc(-c3csc(NC(=O)CNC(=O)c4cn(S(C)(=O)=O)c5ccccc45)n3)n2)ncn1 [Compound 23, N-(2-((4-(6-(6-methylpyrimidin-4-yl)pyridin-2-yl)thiazol-2-yl)amino)-2-oxoethyl)-1-(methylsulfonyl)-1H-indole-3-carboxamide]
IC50 [1]: 1 to 5 µM | Emax [1]: > 40% | BRM Max % Inhibition [2]: >90% | IC50 [2]: 0.1 to 1 µM

Cc1cc(-c2cccc(-c3csc(NC(=O)CNC(=O)c4cn(S(=O)(=O)C(C)C)c(C)c4C)n3)c2)ccn1 [Compound 13, 1-(isopropylsulfonyl)-4,5-dimethyl-N-(2-((4-(3-(2-methylpyridin-4-yl)phenyl)thiazol-2-yl)amino)-2-oxoethyl)-1H-pyrrole-3-carboxamide]
IC50 [1]: 1 to 5 µM | Emax [1]: > 80% | BRM Max % Inhibition [2]: >95% | IC50 [2]: 0.1 to 1 µM

CS(=O)(=O)n1cc(C(=O)NCC(=O)Nc2nc(-c3cccc(-c4ccncc4)c3)cs2)c2ccccc21 [Compound 1, 1-(methylsulfonyl)-N-(2-oxo-2-((4-(3-(pyridin-4-yl)phenyl)thiazol-2-yl)amino)ethyl)-1H-indole-3-carboxamide]
IC50 [1]: > 5 µM | Emax [1]: < 30% | BRM Max % Inhibition [2]: >70% | IC50 [2]: 0.1 to 1 µM

Cc1nccc(-c2cccc(-c3csc(NC(=O)CNC(=O)c4cn(S(C)(=O)=O)c5c4CCCC5)n3)n2)n1 [Compound 18, N-(2-((4-(6-(2-methylpyrimidin-4-yl)pyridin-2-yl)thiazol-2-yl)amino)-2-oxoethyl)-1-(methylsulfonyl)-4,5,6,7-tetrahydro-1H-indole-3-carboxamide]
IC50 [1]: > 5 µM | Emax [1]: < 30% | BRM Max % Inhibition [2]: >70% | IC50 [2]: 0.1 to 1 µM

Cc1cc(C(=O)NCC(=O)Nc2nc(-c3cccc(N4C[C@@H](C)O[C@@H](C)C4)n3)cs2)cn1S(=O)(=O)C(C)C [Compound 38, N-(2-((4-(6-((cis)-2,6-dimethylmorpholino)pyridin-2-yl)thiazol-2-yl)amino)-2-oxoethyl)-1-(isopropylsulfonyl)-5-methyl-1H-pyrrole-3-carboxamide]
IC50 [1]: 1 to 5 µM | Emax [1]: > 70% | BRM Max % Inhibition [2]: >95% | IC50 [2]: 0.1 to 1 µM

Cc1nccc(-c2cccc(-c3csc(NC(=O)CNC(=O)c4cc(Cl)n(S(=O)(=O)C(C)C)c4)n3)n2)n1 [Compound 24, 5-chloro-1-(isopropylsulfonyl)-N-(2-((4-(6-(2-methylpyrimidin-4-yl)pyridin-2-yl)thiazol-2-yl)amino)-2-oxoethyl)-1H-pyrrole-3-carboxamide]
IC50 [1]: > 5 µM | Emax [1]: < 30% | BRM Max % Inhibition [2]: >60% | IC50 [2]: 0.1 to 1 µM

C[C@@H]1CN(c2cccc(-c3csc(NC(=O)CNC(=O)c4cc(Cl)n(S(C)(=O)=O)c4)n3)c2)C[C@H](C)O1 [Compound 44, 5-chloro-N-(2-((4-(3-((2R,6S)-2,6-dimethylmorpholino)phenyl)thiazol-2-yl)amino)-2-oxoethyl)-1-(methylsulfonyl)-1H-pyrrole-carboxamide]
IC50 [1]: < 0.1 µM | IC50 [2]: < 0.1 µM

C[C@@H]1CN(c2cccc(-c3csc(NC(=O)CNC(=O)c4cn(S(C)(=O)=O)c5c4CCCC5)n3)c2)C[C@H](C)O1 [Compound 28, N-(2-((4-(3-((cis)-2,6-dimethylmorpholino)phenyl)thiazol-2-yl)amino)-2-oxoethyl)-1-(methylsulfonyl)-4,5,6,7-tetrahydro-1H-indole-3-carboxamide]
IC50 [1]: 1 to 5 µM | Emax [1]: > 40% | BRM Max % Inhibition [2]: >90% | IC50 [2]: 0.1 to 1 µM

CS(=O)(=O)n1cc(C(=O)NCC(=O)Nc2nc(-c3cccc(-c4ccncc4)c3)cs2)c2ccncc21 [Compound 2, 1-(methylsulfonyl)-N-(2-oxo-2-((4-(3-(pyridin-4-yl)phenyl)thiazol-2-yl)amino)ethyl)-1H-pyrrolo[2,3-c]pyridine-3-carboxamide]
IC50 [1]: 1 to 5 µM | Emax [1]: > 70% | BRM Max % Inhibition [2]: >80% | IC50 [2]: 0.1 to 1 µM

Cc1c(C(=O)NCC(=O)Nc2nc(-c3cccc(-c4ccncc4)c3)cs2)cn(S(=O)(=O)C(C)C)c1C [Compound 10, 1-(isopropylsulfonyl)-4,5-dimethyl-N-(2-oxo-2-((4-(3-(pyridin-4-yl)phenyl)thiazol-2-yl)amino)ethyl)-1H-pyrrole-3-carboxamide]
IC50 [1]: > 5 µM | Emax [1]: < 30% | BRM Max % Inhibition [2]: >70% | IC50 [2]: 0.1 to 1 µM

Cc1cc(-c2cccc(-c3csc(NC(=O)CNC(=O)c4cc(Cl)n(S(=O)(=O)C(C)C)c4)n3)c2)nc(C)n1 [Compound 32, 5-chloro-N-(2-((4-(3-(2,6-dimethylpyrimidin-4-yl)phenyl)thiazol-2-yl)amino)-2-oxoethyl)-1-(isopropylsulfonyl)-1H-pyrrole-3-carboxamide]
IC50 [1]: 0.1 to 1 µM | Emax [1]: > 90% | BRM Max % Inhibition [2]: >95% | IC50 [2]: < 0.1 µM

CC(C)S(=O)(=O)n1cc(C(=O)NCC(=O)Nc2nc(-c3cccc(-c4ccncc4)c3)cs2)c2ccccc21 [Compound 4, 1-(isopropylsulfonyl)-N-(2-oxo-2-((4-(3-(pyridin-4-yl)phenyl)thiazol-2-yl)amino)ethyl)-1H-indole-3-carboxamide]
IC50 [1]: > 5 µM | BRM Max % Inhibition [2]: >60% | IC50 [2]: 0.1 to 1 µM

From patent publication US12509453B2, “BRM/BRG1 inhibitors and uses thereof” (Foghorn Therapeutics Inc., priority 2019, dated 2025)
